Two compounds from ChEMBL document CHEMBL5046251, “Discovery of a Series of Pyrimidine Carboxamides as Inhibitors of Vanin-1” (J Med Chem, 2022) can be followed below.

In data set [1] the target is T1, Pantetheinase (Homo sapiens, UniProt O95497).
T1 sequence (O95497 whole entry): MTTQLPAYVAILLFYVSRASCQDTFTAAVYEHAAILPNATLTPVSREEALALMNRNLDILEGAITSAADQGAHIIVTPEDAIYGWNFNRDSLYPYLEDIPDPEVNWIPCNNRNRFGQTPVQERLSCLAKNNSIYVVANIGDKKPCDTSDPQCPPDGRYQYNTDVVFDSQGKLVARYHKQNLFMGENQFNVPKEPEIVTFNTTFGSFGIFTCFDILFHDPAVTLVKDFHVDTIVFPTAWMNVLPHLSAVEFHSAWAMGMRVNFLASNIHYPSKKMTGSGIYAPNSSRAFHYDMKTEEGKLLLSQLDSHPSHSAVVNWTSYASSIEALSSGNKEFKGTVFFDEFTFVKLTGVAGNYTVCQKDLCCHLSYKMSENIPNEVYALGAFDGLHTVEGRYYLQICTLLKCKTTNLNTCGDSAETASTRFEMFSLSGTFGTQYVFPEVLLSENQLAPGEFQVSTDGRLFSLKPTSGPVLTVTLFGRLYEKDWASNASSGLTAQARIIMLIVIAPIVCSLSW
The data set can be described thus: Inhibition of human plasma vanin-1 using pantetheine-7-amino-4-trifluoromethykournarin as substrate preincubated for 30 mins followed by substrate addition. The format is cell-free.

A further data set has as its target T2, Biotinidase (Homo sapiens, UniProt P43251).
T2 sequence (P43251 whole entry): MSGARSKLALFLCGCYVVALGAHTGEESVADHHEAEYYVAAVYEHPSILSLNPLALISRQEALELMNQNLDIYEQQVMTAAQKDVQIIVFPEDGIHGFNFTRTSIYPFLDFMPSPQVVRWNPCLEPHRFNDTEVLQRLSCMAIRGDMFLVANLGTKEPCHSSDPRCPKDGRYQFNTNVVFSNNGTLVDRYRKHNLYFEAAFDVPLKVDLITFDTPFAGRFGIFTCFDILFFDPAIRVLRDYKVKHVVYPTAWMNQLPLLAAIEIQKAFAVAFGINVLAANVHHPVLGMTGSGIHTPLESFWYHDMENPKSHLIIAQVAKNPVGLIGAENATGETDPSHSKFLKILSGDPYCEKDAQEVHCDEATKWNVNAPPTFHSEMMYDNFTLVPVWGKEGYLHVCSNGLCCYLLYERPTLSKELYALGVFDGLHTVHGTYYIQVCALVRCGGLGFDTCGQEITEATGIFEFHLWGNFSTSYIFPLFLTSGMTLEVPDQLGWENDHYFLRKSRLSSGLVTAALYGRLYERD
The data set can be described thus: Inhibition of N-terminal FLAG/His6-tagged human biotinidase expressed in COS cells using biotinyl-7-amino-4-trifluoromethylcoumarin as substrate preincubated for 10 mins followed by substrate addition and measured after 90 mins. The format is cell-based.

Data set [2] is described as follows: Intrinsic clearance in human hepatocytes assessed per million cells by relay assay method. It counts as ADME, cell-based, Hepatocyte.
Data set [3] can be described thus: Intrinsic clearance in rat hepatocytes assessed per million cells. It counts as ADME, cell-based, Hepatocyte.
Data set [4] is described as follows: Intrinsic clearance in human liver microsomes. It counts as ADME, Microsome. A general note: Liver microsomes are a subcellular fraction often used to study metabolism.
The target in data set [5] is T1, Pantetheinase. The data set can be described thus: Inhibition of recombinant N-terminal FLAG/His6-tagged human vanin-1 expressed in CHO cells using Pantetheine-7-amino-4-trifluoromethykournarin as substrate preincubated for 30 mins followed by substrate addition and measured after 60 mins.
For data set [6], the target named is T3, Pantetheinase (Mus musculus, UniProt Q9Z0K8).
T3 sequence (Q9Z0K8 whole entry): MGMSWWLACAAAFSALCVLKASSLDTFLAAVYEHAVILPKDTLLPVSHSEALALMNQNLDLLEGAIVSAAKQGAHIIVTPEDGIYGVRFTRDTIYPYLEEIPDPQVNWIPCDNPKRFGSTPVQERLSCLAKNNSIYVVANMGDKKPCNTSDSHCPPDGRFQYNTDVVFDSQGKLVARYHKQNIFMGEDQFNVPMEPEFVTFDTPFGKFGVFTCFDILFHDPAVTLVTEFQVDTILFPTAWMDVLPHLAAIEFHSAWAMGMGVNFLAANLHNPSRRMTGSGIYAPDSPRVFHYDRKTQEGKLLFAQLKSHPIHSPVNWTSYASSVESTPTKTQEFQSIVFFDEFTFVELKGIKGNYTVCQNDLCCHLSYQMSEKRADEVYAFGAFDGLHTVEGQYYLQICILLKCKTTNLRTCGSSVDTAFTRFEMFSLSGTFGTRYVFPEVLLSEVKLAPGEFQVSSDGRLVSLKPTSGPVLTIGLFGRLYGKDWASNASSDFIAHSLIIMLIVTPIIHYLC
The data set can be described thus: Inhibition of mouse vanin-1.

Data set [7] in a line: Intrinsic clearance in human hepatocytes assessed per million cells. It counts as ADME, cell-based, Hepatocyte.
A short description of data set [8]: Lipophilicity, log D of the compound in Octanol/buffer by shake-flask method.
Data set [9] in a line: Apparent permeability across apical to basolateral side in RRCK cells. The conditions noted are these: dog, MDCK.
Data set [10] is described as follows: Unbound drug concentration in serum of DSS-induced BALB/c mouse colitis model at 50 mg/kg administered for 10 days. It counts as ADME, organism-based. To be noted: in vivo, 240 h, time 10 day.
Data set [11] can be described thus: AUC in mouse at 10 mg/kg, sc measured upto 24 hrs by LC-MS/MS analysis. It counts as ADME, organism-based. More on the design: route subcutaneous, dose 10 mg/kg, time <=24. The conditions noted are these: in vivo.
The nature of data set [12]: Half life in rat at 1 mg/kg, iv measured upto 24 hrs by LC-MS/MS analysis. The format is ADME, organism-based. To be noted: in vivo.
Data set [13] in a line: AUC in rat at 10 mg/kg, po measured upto 24 hrs by LC-MS/MS analysis. Also on record: route oral, dose 10 mg/kg, time <=24. To be noted: in vivo. The format is ADME, organism-based.
Data set [14] can be described thus: Oral bioavailability in rat at 10 mg/kg measured upto 24 hrs by LC-MS/MS analysis. The format is ADME, organism-based. To be noted: in vivo.
Data set [15] can be described thus: AUC in rat at 1 mg/kg, iv measured upto 24 hrs by LC-MS/MS analysis. The format is ADME, organism-based. More on the design: route intravenous, dose 1 mg/kg, time <=24. To be noted: in vivo.
A short description of data set [16]: Renal clearance in rat at 1 mg/kg, iv assessed glomerular filtration rate. The format is ADME, organism-based. To be noted: in vivo.
Data set [17] has as its system Mus musculus. Briefly: Anti-colitis activity against DSS-induced BALB/c mouse model assessed as reduction in disease activity index at 50 mg/kg, po, qd administered for 10 days. The format is functional, organism-based. The conditions noted are these: time 10.0 day.
Data set [18] is described as follows: Volume of distribution in rat at 1 mg/kg, iv measured upto 24 hrs by LC-MS/MS analysis. To be noted: in vivo. The format is ADME, organism-based.
Data set [19] in a line: Clearance in rat at 1 mg/kg, iv measured upto 24 hrs by LC-MS/MS analysis. To be noted: in vivo. It counts as ADME, organism-based.
Data set [20] has as its system Mus musculus. The data set can be described thus: Anti-colitis activity against DSS-induced BALB/c mouse model assessed as increase in body weight at 50 mg/kg, po, qd administered for 10 days. To be noted: time 10.0 day. The format is functional, organism-based.

Calls of active or inactive are those of the source. The rule behind the calls is not given here.

With `CC(C)(Nc1ncc(C(=O)N2CC3(CCOCC3)C2)cn1)c1cnccn1`, the 50% inhibitory concentration (IC50) is 0.88 nM against Pantetheinase [1], 1200 nM at Biotinidase, 0.11 nM on Pantetheinase [5] and 0.41 nM at Pantetheinase [6]. Further, the results for the CLint in data set [2], in data set [3] and in [7] were 1.66 µL/min/1e6 cells, 25.8 µL/min/1e6 cells and below 3.5 µL/min/1e6 cells, respectively. Moreover, in data set [4], the Intrinsic clearance was below 13 µL/min/mg. Further, the logD in data set [8] was found to be 0.6. Also, the Papp A→B in data set [9] turned out to be 14 ×10⁻⁶ cm/s.
Take `C[C@H](Nc1ncc(C(=O)N2CCC3(CCOCC3)C2)cn1)c1cnccn1`: the Ct in data set [10] is recorded as 2852 nM. Further, the exposure (AUC) at 24 h in data set [11] came out at 6590 ng·h/mL; in data set [13], 2250 ng·h/mL; in [15], 616 ng·h/mL. The compound also showed a half-life in [12] of 48 min. The figures for the IC50 on Biotinidase and at Pantetheinase [6] were 2800 nM and 0.56 nM, respectively. Also, the values for the CLint in data set [2], in data set [3] and in [7] were 0.25 µL/min/1e6 cells, 6 µL/min/1e6 cells and below 3 µL/min/1e6 cells, respectively. The bioavailability in data set [14] turned out to be 37%. This compound had an Intrinsic clearance in data set [4] below 8 µL/min/mg. Moreover, in [16], the CL was 25%. Further, the outcome with Mus musculus [17] and with Mus musculus [20] was Active. Also, in [18], the Vd stood at 0.98 L/kg. In data set [19], this compound showed a clearance of 30 mL/min/kg. The log distribution coefficient (logD) in data set [8] was determined as 0.4. Further, the Papp A→B in data set [9] stood at 14 ×10⁻⁶ cm/s.

Broadly, the IC50 is the point on the concentration scale where inhibition reaches its midpoint. As usually defined, the logD is lipophilicity at a set pH, counting ionised and neutral species. As usually defined, the Papp A→B is how fast a substance crosses the layer from the apical side. What is called AUC is concentration integrated over time. Lower therefore signals low exposure. A word on the half-life: it is the time in which the quantity being followed falls by half. Low values mean rapid decline, high ones slow decline. A word on the bioavailability: it is the share of a dose that reaches the circulation, judged against a reference dose that is usually intravenous. In general, Vd refers to a proportionality between amount in the body and measured concentration, not a real space. Higher therefore signals extensive tissue distribution. Usually clearance stands for the volume of plasma or blood freed of the substance per unit of time.
